Columns and labels:
[1] = target: T1, CK1α (Homo sapiens, UniProt P48729+Q96SW2); test: Western blot, degradation of substrate protein in hPBMCs; assay type: cell-based
T1 construct: effects of the compounds of the present disclosure on the expression of target proteins in cells; endogenous in cells; host or cells: human PBMCs (Milecell Biotechnologies)

[2] = target: T2, IKZF1 (Homo sapiens, UniProt Q13422+Q96SW2); test: as above; assay type: cell-based
T2 construct: effects of the compounds of the present disclosure on the expression of target proteins in cells; endogenous in cells; host or cells: human PBMCs (Milecell Biotechnologies)

[3] = target: T3, IKZF2 (Homo sapiens, UniProt Q96SW2+Q9UKS7); test: as above; assay type: cell-based
T3 construct: effects of the compounds of the present disclosure on the expression of target proteins in cells; endogenous in cells; host or cells: human PBMCs (Milecell Biotechnologies)

[4] = target: T4, IKZF3 (Homo sapiens, UniProt Q96SW2+Q9UKT9); test: as above; assay type: cell-based
T4 construct: effects of the compounds of the present disclosure on the expression of target proteins in cells; endogenous in cells; host or cells: human PBMCs (Milecell Biotechnologies)

[5] = target: T5, WEE1 (Homo sapiens, UniProt P30291+Q96SW2); test: as above; assay type: cell-based
T5 construct: effects of the compounds of the present disclosure on the expression of target proteins in cells; endogenous in cells; host or cells: human PBMCs (Milecell Biotechnologies)

[6] = test system: GSPT1; test: as above; assay type: cell-based, Human
[7] = target: T6, human Cereblon WT GST-tagged protein (Homo sapiens, UniProt Q96SW2); test: CRBN-binding affinity, HTRF (CEREBLON BINDING kit); settings: for inhibition at 0.5 µM: read-out: Inhibition Rate at 0.5 µM (%); for inhibition at 2 µM: read-out: Inhibition Rate at 2 µM (%)
T6 construct: purchased CISBIO 64BDCRBNPEH

[8] = 24 hours treatment, compounds at 50 nM and 500 nM (concentration behind the class not stated)
[9] = Western blot, 24 hours of compound treatment, compounds tested at 50 nM and 500 nM (concentration for the table not stated)

T2 sequence (Q13422 whole entry): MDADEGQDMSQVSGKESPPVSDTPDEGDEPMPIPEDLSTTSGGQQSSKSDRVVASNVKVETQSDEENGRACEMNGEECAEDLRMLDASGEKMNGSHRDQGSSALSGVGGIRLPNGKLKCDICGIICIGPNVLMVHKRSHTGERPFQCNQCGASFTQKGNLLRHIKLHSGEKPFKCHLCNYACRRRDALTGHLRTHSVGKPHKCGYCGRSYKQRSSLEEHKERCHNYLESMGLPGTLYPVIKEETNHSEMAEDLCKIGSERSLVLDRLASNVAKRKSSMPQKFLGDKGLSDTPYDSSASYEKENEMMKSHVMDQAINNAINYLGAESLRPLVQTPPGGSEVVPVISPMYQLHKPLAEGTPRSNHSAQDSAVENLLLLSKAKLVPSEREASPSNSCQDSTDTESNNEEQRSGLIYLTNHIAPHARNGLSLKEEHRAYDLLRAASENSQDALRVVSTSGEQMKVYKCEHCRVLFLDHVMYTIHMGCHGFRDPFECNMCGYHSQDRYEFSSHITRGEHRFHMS
T2 sequence (Q96SW2 whole entry): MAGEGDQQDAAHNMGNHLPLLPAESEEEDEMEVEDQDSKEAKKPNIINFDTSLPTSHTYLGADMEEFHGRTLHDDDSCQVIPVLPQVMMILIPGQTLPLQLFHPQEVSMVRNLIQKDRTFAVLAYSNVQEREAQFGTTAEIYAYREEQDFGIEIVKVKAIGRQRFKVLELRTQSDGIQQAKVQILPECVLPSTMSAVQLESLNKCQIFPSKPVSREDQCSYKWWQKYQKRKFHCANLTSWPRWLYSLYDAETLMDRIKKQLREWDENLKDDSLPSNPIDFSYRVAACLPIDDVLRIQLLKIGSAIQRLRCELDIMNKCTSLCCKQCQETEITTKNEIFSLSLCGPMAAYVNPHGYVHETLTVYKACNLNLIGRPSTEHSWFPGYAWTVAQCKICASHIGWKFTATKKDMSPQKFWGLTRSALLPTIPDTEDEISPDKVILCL
T2 sequence (Q16531 whole entry partner): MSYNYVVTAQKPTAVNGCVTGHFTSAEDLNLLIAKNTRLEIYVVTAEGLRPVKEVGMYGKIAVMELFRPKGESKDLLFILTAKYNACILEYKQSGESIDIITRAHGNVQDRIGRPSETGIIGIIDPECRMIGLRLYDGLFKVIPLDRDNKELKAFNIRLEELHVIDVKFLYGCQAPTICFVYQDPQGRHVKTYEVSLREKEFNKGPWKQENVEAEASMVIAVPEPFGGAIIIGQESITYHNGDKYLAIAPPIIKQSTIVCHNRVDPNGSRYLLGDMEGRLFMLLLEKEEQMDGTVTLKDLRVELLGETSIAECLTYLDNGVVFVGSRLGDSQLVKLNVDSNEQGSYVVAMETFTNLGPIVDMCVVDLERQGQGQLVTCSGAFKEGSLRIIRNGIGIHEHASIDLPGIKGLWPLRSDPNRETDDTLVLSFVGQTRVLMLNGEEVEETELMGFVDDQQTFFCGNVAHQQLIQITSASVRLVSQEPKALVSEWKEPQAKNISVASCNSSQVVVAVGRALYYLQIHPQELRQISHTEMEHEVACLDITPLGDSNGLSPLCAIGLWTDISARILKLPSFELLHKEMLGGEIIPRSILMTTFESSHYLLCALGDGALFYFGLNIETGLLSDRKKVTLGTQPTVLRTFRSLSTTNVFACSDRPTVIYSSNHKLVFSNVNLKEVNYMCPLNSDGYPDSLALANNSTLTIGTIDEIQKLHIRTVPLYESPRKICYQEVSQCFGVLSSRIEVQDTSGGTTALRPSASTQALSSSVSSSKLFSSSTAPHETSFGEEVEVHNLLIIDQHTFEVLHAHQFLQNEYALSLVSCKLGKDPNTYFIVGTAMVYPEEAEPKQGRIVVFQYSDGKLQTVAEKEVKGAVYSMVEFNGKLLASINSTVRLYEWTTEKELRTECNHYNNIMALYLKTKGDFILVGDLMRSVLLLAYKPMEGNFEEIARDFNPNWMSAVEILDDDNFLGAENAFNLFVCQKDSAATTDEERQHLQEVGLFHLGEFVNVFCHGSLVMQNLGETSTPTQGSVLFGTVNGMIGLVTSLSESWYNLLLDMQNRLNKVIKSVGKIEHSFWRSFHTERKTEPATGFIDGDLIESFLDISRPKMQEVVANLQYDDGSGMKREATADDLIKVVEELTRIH
T1 sequence (P48729 whole entry): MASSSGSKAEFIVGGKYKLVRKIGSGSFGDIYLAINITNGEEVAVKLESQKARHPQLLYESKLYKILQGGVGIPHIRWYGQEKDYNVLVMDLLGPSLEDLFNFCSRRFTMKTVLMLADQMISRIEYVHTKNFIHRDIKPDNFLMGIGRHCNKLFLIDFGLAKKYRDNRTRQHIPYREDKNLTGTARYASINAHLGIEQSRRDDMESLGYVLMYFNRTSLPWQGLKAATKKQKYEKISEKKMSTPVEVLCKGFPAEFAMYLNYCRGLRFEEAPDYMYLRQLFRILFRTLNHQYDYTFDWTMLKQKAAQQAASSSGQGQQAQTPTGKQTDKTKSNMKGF
T1 sequence (Q96SW2 whole entry): as the sequence (Q96SW2 whole entry) above
T1 sequence (Q16531 whole entry partner): as the sequence (Q16531 whole entry partner) above
T5 sequence (P30291 whole entry): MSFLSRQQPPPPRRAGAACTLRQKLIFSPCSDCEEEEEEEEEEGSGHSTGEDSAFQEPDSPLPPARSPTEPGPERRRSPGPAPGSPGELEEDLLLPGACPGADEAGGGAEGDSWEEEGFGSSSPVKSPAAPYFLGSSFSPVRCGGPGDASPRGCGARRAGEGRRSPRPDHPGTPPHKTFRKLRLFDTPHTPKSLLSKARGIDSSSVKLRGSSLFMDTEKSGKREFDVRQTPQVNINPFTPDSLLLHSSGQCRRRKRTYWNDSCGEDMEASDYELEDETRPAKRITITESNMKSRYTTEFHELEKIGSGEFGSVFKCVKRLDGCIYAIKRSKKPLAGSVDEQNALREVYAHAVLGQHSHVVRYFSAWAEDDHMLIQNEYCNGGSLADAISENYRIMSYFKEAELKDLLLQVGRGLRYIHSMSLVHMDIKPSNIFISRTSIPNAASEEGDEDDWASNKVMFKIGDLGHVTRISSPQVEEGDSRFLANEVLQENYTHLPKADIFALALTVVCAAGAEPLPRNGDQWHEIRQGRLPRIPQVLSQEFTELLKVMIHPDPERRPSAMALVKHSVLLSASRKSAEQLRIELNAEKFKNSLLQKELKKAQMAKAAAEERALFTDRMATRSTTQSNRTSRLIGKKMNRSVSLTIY
T5 sequence (Q96SW2 whole entry): as the sequence (Q96SW2 whole entry) above
T5 sequence (Q16531 whole entry partner): as the sequence (Q16531 whole entry partner) above
T3 sequence (Q9UKS7 whole entry): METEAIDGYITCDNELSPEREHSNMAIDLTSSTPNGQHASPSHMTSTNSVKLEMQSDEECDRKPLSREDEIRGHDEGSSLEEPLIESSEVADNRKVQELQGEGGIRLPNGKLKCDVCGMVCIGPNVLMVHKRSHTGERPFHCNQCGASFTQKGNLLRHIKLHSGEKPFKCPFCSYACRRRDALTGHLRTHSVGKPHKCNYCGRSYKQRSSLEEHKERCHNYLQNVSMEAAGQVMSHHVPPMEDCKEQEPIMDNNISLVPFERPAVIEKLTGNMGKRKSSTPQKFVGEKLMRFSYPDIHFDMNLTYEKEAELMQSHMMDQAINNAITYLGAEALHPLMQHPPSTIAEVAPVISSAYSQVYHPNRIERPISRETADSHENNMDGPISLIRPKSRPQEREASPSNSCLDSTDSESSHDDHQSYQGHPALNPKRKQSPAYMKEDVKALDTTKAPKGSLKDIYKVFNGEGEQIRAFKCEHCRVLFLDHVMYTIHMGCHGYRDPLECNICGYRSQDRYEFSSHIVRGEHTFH
T3 sequence (Q96SW2 whole entry): as the sequence (Q96SW2 whole entry) above
T3 sequence (Q16531 whole entry partner): as the sequence (Q16531 whole entry partner) above
T6 sequence (Q96SW2 whole entry): as the sequence (Q96SW2 whole entry) above
T4 sequence (Q9UKT9 whole entry): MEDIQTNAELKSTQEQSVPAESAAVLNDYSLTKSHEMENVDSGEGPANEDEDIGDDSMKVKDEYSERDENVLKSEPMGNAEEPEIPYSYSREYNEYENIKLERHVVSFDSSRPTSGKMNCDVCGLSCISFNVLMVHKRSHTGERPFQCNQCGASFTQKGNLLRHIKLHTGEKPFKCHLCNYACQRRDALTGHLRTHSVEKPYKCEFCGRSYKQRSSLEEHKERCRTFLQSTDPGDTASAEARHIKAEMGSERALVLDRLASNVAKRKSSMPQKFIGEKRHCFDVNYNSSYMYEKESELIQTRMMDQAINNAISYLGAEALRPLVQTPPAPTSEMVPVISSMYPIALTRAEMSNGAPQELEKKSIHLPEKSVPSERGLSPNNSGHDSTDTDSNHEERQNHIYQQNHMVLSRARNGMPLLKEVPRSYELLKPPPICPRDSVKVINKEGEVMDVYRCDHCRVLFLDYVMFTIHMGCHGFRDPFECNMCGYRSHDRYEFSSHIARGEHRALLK
T4 sequence (Q96SW2 whole entry): as the sequence (Q96SW2 whole entry) above
T4 sequence (Q16531 whole entry partner): as the sequence (Q16531 whole entry partner) above

SMILES | inhibition at 0.5 µM [7] | inhibition at 2 µM [7] | CK1α substrate protein remaining % [1, 8] | IKZF 1 substrate protein remaining % [2, 8] | IKZF2 substrate protein remaining % [3, 8] | IKZF3 substrate protein remaining % [4, 8] | Wee1 substrate protein remaining % [5, 8] | GSPT1 substrate protein remaining % [6, 8] | CK1α substrate protein remaining % [1, 9] | IKZF 1 substrate protein remaining % [2, 9] | IKZF2 substrate protein remaining % [3, 9] | IKZF3 substrate protein remaining % [4, 9] | Wee1 substrate protein remaining % [5, 9] | GSPT1 substrate protein remaining % [6, 9]
O=C1CCC(N2Cc3cc(CN4CCN(c5nc(N6CCNCC6)c6sccc6n5)CC4)ccc3C2=S)C(=O)N1 (stereo not shown) [GT-09365, 3-(5-((4-(4-(piperazin-1-yl)thieno[3,2-d]pyrimidin-2-yl)piperazin-1-yl)methyl)-1-thioxoisoindolin-2-yl)piperidine-2,6-dione] | 60 to 80% | 80 to 100% | A (0% ≤ substrate protein remaining % ≤ 80%) | A (0% ≤ substrate protein remaining % ≤ 80%) | B (80%< substrate protein remaining %≤ 100%) | B (80%< substrate protein remaining %≤ 100%) | B (80%< substrate protein remaining %≤ 100%) | A (0% ≤ substrate protein remaining % ≤ 80%) |  |  |  |  |  | 
O=C1CCC(N2Cc3cc(CN4CCN(c5ccc(C(F)(F)F)cn5)CC4)ccc3C2=S)C(=O)N1 (stereo not shown) [GT-09225, 3-(1-thioxo-5-((4-(5-(trifluoromethyl)pyridin-2-yl)piperazin-1-yl)methyl)isoindolin-2-yl)piperidine-2,6-dione] | 60 to 80% | 80 to 100% |  |  |  |  |  |  | A (0% ≤ substrate protein remaining % ≤ 80%) | B (80%< substrate protein remaining %≤ 100%) | B (80%< substrate protein remaining %≤ 100%) | A (0% ≤ substrate protein remaining % ≤ 80%) | B (80%< substrate protein remaining %≤ 100%) | A (0% ≤ substrate protein remaining % ≤ 80%)
O=C1CCC(N2Cc3c(CN4CCC(c5cccc(C(F)(F)F)c5)CC4)cccc3C2=S)C(=O)N1 (stereo not shown) [GT-08599, 3-(1-thioxo-4-((4-(3-(trifluoromethyl)phenyl)piperidin-1-yl)methyl)isoindolin-2-yl)piperidine-2,6-dione] | 30 to 40% | 60 to 80% |  |  |  |  |  |  | B (80%< substrate protein remaining %≤ 100%) | B (80%< substrate protein remaining %≤ 100%) | B (80%< substrate protein remaining %≤ 100%) | B (80%< substrate protein remaining %≤ 100%) | A (0% ≤ substrate protein remaining % ≤ 80%) | B (80%< substrate protein remaining %≤ 100%)

Now from value to compound, other results behind:

inhibition at 0.5 µM [7] | inhibition at 2 µM [7] | SMILES | CK1α substrate protein remaining % [1, 8] | IKZF 1 substrate protein remaining % [2, 8] | IKZF2 substrate protein remaining % [3, 8] | IKZF3 substrate protein remaining % [4, 8] | Wee1 substrate protein remaining % [5, 8] | GSPT1 substrate protein remaining % [6, 8] | CK1α substrate protein remaining % [1, 9] | IKZF 1 substrate protein remaining % [2, 9] | IKZF2 substrate protein remaining % [3, 9] | IKZF3 substrate protein remaining % [4, 9] | Wee1 substrate protein remaining % [5, 9] | GSPT1 substrate protein remaining % [6, 9]
60 to 80% | 80 to 100% | O=C1CCC(N2Cc3c(CN4CCN(c5cnccn5)CC4)cccc3C2=S)C(=O)N1 (stereo not shown) [GT-08813, 3-(4-((4-(pyrazin-2-yl)piperazin-1-yl)methyl)-1-thioxoisoindolin-2-yl)piperidine-2,6-dione] |  |  |  |  |  |  | B (80%< substrate protein remaining %≤ 100%) | B (80%< substrate protein remaining %≤ 100%) | B (80%< substrate protein remaining %≤ 100%) | B (80%< substrate protein remaining %≤ 100%) | A (0% ≤ substrate protein remaining % ≤ 80%) | B (80%< substrate protein remaining %≤ 100%)
30 to 40% | 53 to 60% | O=C1CCC(N2Cc3c(CN4CCC(c5ccc(Cl)cc5)CC4)cccc3C2=S)C(=O)N1 (stereo not shown) [GT-08594, 3-(4-((4-(4-chlorophenyl)piperidin-1-yl)methyl)-1-thioxoisoindolin-2-yl)piperidine-2,6-dione] |  |  |  |  |  |  | B (80%< substrate protein remaining %≤ 100%) | B (80%< substrate protein remaining %≤ 100%) | A (0% ≤ substrate protein remaining % ≤ 80%) | B (80%< substrate protein remaining %≤ 100%) | A (0% ≤ substrate protein remaining % ≤ 80%) | B (80%< substrate protein remaining %≤ 100%)

— EP4745135A1 (Gluetacs Therapeutics (Shanghai) Co., Ltd., priority 2023, dated 2025)
